# System: Radical scavenging activity
# Experiment: Antioxidant activity assessed as DPPH radical scavenging activity after 30 mins
# Format: functional
row,Compound,RC50
1,O=c1c(O)c(-c2ccc(O)c(O)c2)oc2cc(O)cc(O)c12,2.88 ×10⁻⁵ mg/ml
2,COC(=O)C1=CO[C@@H](O[C@@H]2O[C@H](CO)[C@@H](O)[C@H](O)[C@H]2O)[C@@H]2[C@@H]1[C@@H](O)C[C@]2(C)OC(C)=O,1.1 ×10⁻¹ mg/ml
3,COC(=O)C1=CO[C@@H](O[C@@H]2O[C@H](CO)[C@@H](O)[C@H](O)[C@H]2O)[C@H]2[C@H](C)C[C@@H](O)[C@@]12O,4.9 ×10⁻¹ mg/ml
4,COC(=O)C1=CO[C@@H](O[C@@H]2O[C@H](CO)[C@@H](O)[C@H](O)[C@H]2O)[C@H]2C(C)=C[C@@H](O)[C@@]12O,4.1 ×10⁻¹ mg/ml

# — ChEMBL document CHEMBL1148904, “Iridoid glycosides from Eremostachys glabra” (J Nat Prod, 2004)
